Measured values as given in US20080255192A1, “Methods and Compositions for Selectin Inhibition” (Wyeth, priority 2007, published 2008).

Target: T1, P-selectin/PSGL-1 interaction (Homo sapiens, UniProt P16109)
T1 construct: comprised of the lectin and epidermal growth factor-like (EGF) domains expressed in CHO cells; made in house; host or cells: CHO cells (P-LE)
T1 sequence (P16109 42-198): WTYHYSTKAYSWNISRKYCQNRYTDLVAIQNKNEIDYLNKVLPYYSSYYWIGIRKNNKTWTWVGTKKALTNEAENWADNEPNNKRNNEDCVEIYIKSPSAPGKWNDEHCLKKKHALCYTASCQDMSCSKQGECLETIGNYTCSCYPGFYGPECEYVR
Assay: Biacore P-Selectin/PSGL-1 Inhibition Assay (surface plasmon resonance)
Assay type: binding
Conditions: 250 uM test compound, 500 nM P.LE, immobilized PSGL-1 19ek, 10% DMSO, pH 7.4
Summary of the method: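 Biotinylated monomeric human PSGL-1 "19ek" on streptavidin chip (600–700 RU); compounds preincubated 1 h, then mixed with 500 nM P-LE (lectin-EGF, CHO-expressed) at 250 or 500 μM compound, 10% DMSO, HEPES buffer with 1 mM CaCl2/MgCl2, pH 7.4. SPR at 25 °C; percent binding inhibition from double-referenced signals.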

Work on `O=C(O)c1c(OC(=O)N2CCOCC2)c(Cc2ccc(Cl)cc2)nc2c3c(ccc12)CCCC3` [Compound 138, 2-(4-Chlorobenzyl)-3-[(morpholin-4-ylcarbonyl)oxy]-7,8,9,10-tetrahydrobenzo[h]quinoline-4-carboxylic acid] yielded an inhibition at 250 µM of 16%.
